Here are results for 3 molecules from paper PMC4183140 (Journal of medicinal chemistry, 2009).

For the test, the system named is 1A9 ovarian cancer cells. Briefly: Anti-proliferative activity in 1A9 ovarian cancer cells. The test is classed as cell-based. The settings on record: for Antiproliferative activity (in words): antiproliferative assays, highest concentration tested 50 μM.

Consider `CC[C@H](C)[C@H](NC(=O)[C@H]1CCCCN1C)C(=O)N[C@H](C[C@@H](O)c1nc(C(=O)N[C@@H](Cc2ccccc2)C[C@H](C)C(=O)O)cs1)C(C)C` [Compound 4, tubulysin V], for which, for the setting “antiproliferative assays (1A9 and MCF-7), relative to epi-tubulysin V”, the “Fold more active than epi-tubulysin V in the antiproliferative assays” value is given as 30–45 fold.

Take `CC[C@H](C)[C@H](NC(=O)[C@@H](C)N(C)C)C(=O)N[C@H](CC(=O)c1nc(C(=O)N[C@@H](Cc2ccccc2)C[C@H](C)C(=O)O)cs1)C(C)C` [Compound 21]: the “Antiproliferative activity (in words)” value was “not active”.

Regarding `CC[C@H](C)[C@H](NC(=O)[C@@H](C)N(C)C)C(=O)N[C@H](CC(=O)c1nc(C(=O)N[C@H](CCC(=O)O)Cc2ccccc2)cs1)C(C)C` [Compound 22], the “Antiproliferative activity (in words)” value is reported as “sub-micromolar activity”.
